From PubChem BioAssay (NCI)
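Where inhibition never reached the appropriate level, the endpoint shown equals the highest concentration tested. Otherwise, values were interpolated linearly from a five-concentration, 48-hour dose response in 96-well plates. Definition used: TGI = concentration required for complete inhibition of growth.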

What was measured:
Assay in all cases: inhibition of tumour cell growth, NCI panel, 48 h
[1] = tested on: HOP-62 NSCLC
[2] = tested on: CCRF-CEM leukemia
[3] = tested on: TK-10 renal
[4] = tested on: NCI-H522 lung
[5] = tested on: MDA-MB-231 breast
[6] = tested on: T-47D breast
[7] = tested on: COLO 205 colon
[8] = tested on: NCI-H23 lung
[9] = tested on: EKVX NSCLC
[10] = tested on: U251 CNS
[11] = tested on: OVCAR-3 ovarian
[12] = tested on: HS 578T breast
[13] = tested on: NCI-H460 lung
[14] = tested on: ACHN renal
[15] = tested on: UACC-62 melanoma
[16] = tested on: SK-MEL-5 melanoma
[17] = tested on: HL-60(TB) leukemia

Structure (SMILES)	TGI [1]	TGI [2]	TGI [3]	TGI [4]	TGI [5]	TGI [6]	TGI [7]	TGI [8]	TGI [9]	TGI [10]	TGI [11]	TGI [12]	TGI [13]	TGI [14]	TGI [15]	TGI [16]	TGI [17]
Cc1[nH]c(=O)nc2nc3cc(Cl)cc(Cl)c3c(NC(C)(CO)CO)c12	83.7 µM	> 100 µM	84.1 µM	> 100 µM	36.9 µM	> 100 µM	> 100 µM	> 100 µM	> 100 µM	28.8 µM	> 100 µM	> 100 µM	> 100 µM	> 100 µM	> 100 µM	> 100 µM	–
CC(/C=C/C(=O)NO)=C\C(C)C(=O)c1ccc(N(C)C)cc1 (configuration not stated)	14.6 µM	–	0.107 µM	< 0.0129 µM	0.0538 µM	> 100 µM	0.0854 µM	4 µM	41 µM	0.0354 µM	–	0.133 µM	0.0658 µM	0.0942 µM	0.063 µM	0.187 µM	2.53 µM
Cc1ccc(O)c(Cc2nc3ccccc3nc2-c2cccc(Cl)c2)c1	> 100 µM	–	> 100 µM	79 µM	> 100 µM	> 100 µM	> 100 µM	> 100 µM	> 100 µM	> 100 µM	> 100 µM	> 100 µM	> 100 µM	> 100 µM	> 100 µM	> 100 µM	> 100 µM
Cc1ccc(O)c(C(c2cccc(C(c3cc(C)ccc3O)c3cc(C)ccc3O)c2)c2cc(C)ccc2O)c1	4.04 µM	–	3.25 µM	3.03 µM	2.83 µM	4.45 µM	2.47 µM	3.18 µM	3.63 µM	3.32 µM	4.35 µM	4.01 µM	–	3.13 µM	3.51 µM	3.93 µM	5.31 µM
CN1C(=O)C2(C)SC1(c1ccccc1)C1C(=O)N(c3ccccc3)C(=O)C12 (configuration not stated)	> 100 µM	–	> 100 µM	> 100 µM	> 100 µM	> 100 µM	> 100 µM	> 100 µM	> 100 µM	> 100 µM	> 100 µM	> 100 µM	–	> 100 µM	> 100 µM	> 100 µM	> 100 µM
N#Cc1ccc(C(O)C(F)(F)c2nc3ccccc3o2)cc1 (configuration not stated)	> 100 µM	> 100 µM	> 100 µM	–	> 100 µM	> 100 µM	> 100 µM	> 100 µM	> 100 µM	> 100 µM	–	> 100 µM	> 100 µM	> 100 µM	> 100 µM	> 100 µM	> 100 µM
O=C(Nc1ccccc1)c1cc(S(=O)(=O)Nc2n[nH]c(=O)n2-c2ccccc2)c(S)cc1Cl	–	–	> 100 µM	> 100 µM	> 100 µM	> 100 µM	> 100 µM	–	> 100 µM	> 100 µM	> 100 µM	> 100 µM	> 100 µM	–	> 100 µM	> 100 µM	> 100 µM
Cc1ccc2c(c1)SC1=Nc3sc4cc(C)ccc4[n+]3CN12	54.6 µM	–	48 µM	11.2 µM	92.8 µM	8.75 µM	13.1 µM	13.6 µM	45.4 µM	19 µM	6.97 µM	35.5 µM	> 100 µM	> 100 µM	16.6 µM	3.28 µM	9.77 µM
CN=C1Nc2ccccc2C(=O)N2CSCC12 (configuration not stated)	> 100 µM	> 100 µM	> 100 µM	> 100 µM	> 100 µM	> 100 µM	> 100 µM	–	> 100 µM	> 100 µM	> 100 µM	> 100 µM	> 100 µM	> 100 µM	> 100 µM	> 100 µM	–
Cc1ccc2c(=O)cc(-c3sccc3C)[nH]c2n1	> 100 µM	> 24.4 µM	> 100 µM	–	> 43.4 µM	> 100 µM	1.41 µM	–	> 100 µM	> 33.6 µM	> 100 µM	13.6 µM	> 79.8 µM	> 54.5 µM	> 72 µM	3.88 µM	0.743 µM
CC(=O)NC1C(OC(C)C(=O)NC(C)C(=O)NC(CCC(=O)NCCCCCNc2ccc([N+](=O)[O-])c3[nH]c4ccccc4c(=O)c23)C(N)=O)C(O)C(CO)OC1(C)OCc1ccccc1 (configuration not stated)	> 100 µM	> 100 µM	82.1 µM	> 100 µM	> 100 µM	> 100 µM	> 100 µM	> 100 µM	> 100 µM	> 100 µM	> 100 µM	> 100 µM	> 100 µM	> 100 µM	> 100 µM	> 100 µM	–
